ChEMBL document CHEMBL1201862, “PubChem BioAssay data set” (2004)
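Tested at 5 concentrations; 48 h exposure; 96-well plates; endpoints linearly interpolated, else capped at highest concentration. GI50: concentration for 50% inhibition of growth.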 Calls of active or inactive are those of the source. Rule as the data show it: active = GI50 up to about 1.1 µM and inactive = higher.

Legend:
Test in all cases: NCI anticancer screen, dose series, 48 h
ACHN = system: ACHN
CCRF-CEM = system: CCRF-CEM
EKVX = system: EKVX
HCC 2998 = system: HCC 2998
IGROV-1 = system: IGROV-1
K562 = system: K562
KM12 = system: KM12
LOX IMVI = system: LOX IMVI
Malme-3M = system: Malme-3M
NCI-H522 = system: NCI-H522
OVCAR-5 = system: OVCAR-5
SF-268 = system: SF-268
SF-539 = system: SF-539
SNB-19 = system: SNB-19
HL-60 = system: HL-60
NCI/ADR-RES = system: NCI/ADR-RES
PC-3 = system: PC-3
TK-10 = system: TK-10

Measured: GI50

COc1cc(/C=N/N=C(\N)NO)c(Cl)cc1O
inactive: ACHN 42.5 µM | CCRF-CEM > 100 µM | EKVX 43.8 µM | HCC 2998 61.5 µM | IGROV-1 > 100 µM | K562 83.2 µM | KM12 45.3 µM | LOX IMVI 32.7 µM | Malme-3M 68.7 µM | NCI-H522 31.4 µM | OVCAR-5 46.7 µM | SF-268 85.1 µM | SF-539 81.3 µM | SNB-19 > 100 µM

O=C(CC(C(=O)c1cccs1)c1ccsc1)c1ccc(Cl)cc1 (configuration not stated)
inactive: ACHN > 100 µM | CCRF-CEM > 100 µM | EKVX > 100 µM | HCC 2998 > 100 µM | HL-60 > 100 µM | IGROV-1 > 100 µM | K562 > 100 µM | KM12 > 100 µM | LOX IMVI > 100 µM | Malme-3M > 100 µM | NCI/ADR-RES 83.8 µM | OVCAR-5 > 100 µM | PC-3 > 100 µM | SF-268 > 100 µM | SF-539 > 100 µM | SNB-19 > 100 µM | TK-10 > 100 µM

CC1=CC(=O)/C(=C(/C)NCCN(CCN/C(C)=C2\C(=O)C=C(C)OC2=O)CCN/C(C)=C2\C(=O)C=C(C)OC2=O)C(=O)O1
inactive: ACHN > 100 µM | CCRF-CEM > 100 µM | EKVX > 100 µM | HCC 2998 > 100 µM | HL-60 > 100 µM | IGROV-1 > 100 µM | K562 > 100 µM | KM12 > 100 µM | NCI-H522 > 100 µM | NCI/ADR-RES > 100 µM | OVCAR-5 > 100 µM | PC-3 > 100 µM | SF-268 > 100 µM | SF-539 > 100 µM | SNB-19 > 100 µM | TK-10 > 100 µM

O=[N+]([O-])c1ccc(/C=C/c2csnn2)cc1
inactive: ACHN > 100 µM | CCRF-CEM > 100 µM | EKVX > 100 µM | HCC 2998 > 100 µM | HL-60 > 100 µM | IGROV-1 > 100 µM | K562 > 100 µM | KM12 > 100 µM | LOX IMVI > 100 µM | Malme-3M > 100 µM | NCI-H522 > 100 µM | OVCAR-5 > 100 µM | SF-268 > 100 µM | SF-539 > 100 µM | SNB-19 > 100 µM | TK-10 > 100 µM

Nc1ncnc2c1ncn2C1C=CC(CP(=O)(O)O)C1 (configuration not stated)
inactive: ACHN > 100 µM | EKVX > 100 µM | HCC 2998 > 100 µM | IGROV-1 > 100 µM | KM12 > 100 µM | LOX IMVI > 100 µM | Malme-3M > 100 µM | NCI/ADR-RES > 100 µM | OVCAR-5 > 100 µM | PC-3 > 100 µM | SF-268 > 100 µM | SF-539 > 100 µM | SNB-19 > 100 µM | TK-10 > 100 µM
